The target in assay [1] is T1, CD99-ECD (extracellular domain of human CD99) (Homo sapiens, UniProt P14209).
T1 construct: the extracellular domain (Asp23-Asp122) of human CD99; made in house; host or cells: Escherichia coli BL21 (DE3)
T1 sequence (P14209 23-122): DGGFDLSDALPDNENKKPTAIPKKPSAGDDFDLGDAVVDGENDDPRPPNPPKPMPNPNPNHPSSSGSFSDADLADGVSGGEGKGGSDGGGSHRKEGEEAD
The assay can be described thus: SPR binding, CD99-ECD purified from bacteria. The source says: The Champion™ pET104 BioEase™ Gateway® Expression System (Invitrogen (Carlsbad, Calif.)) was used to produce CD99-ECD fused with a N-terminal biotin tag, as directed by the manufacturer's instructions. Briefly, the DNA sequence encoding the extracellular domain (Asp23-Asp122) of human CD99 was amplified by PCR using pcDNA3.1 expression vector (Life Technologies (Carlsbad, Calif.)) carrying the full-length human CD99 cDNA transcript variant 1 as template. The primers were designed to include an additional C-terminal 6×His tag in the protein. The PCR product was gel purified with a QIAquick gel extraction kit (Qiagen (Hilden, Germany)) and subcloned into the pDONR 221 entry vector. The entry clone was then subjected to a recombination reaction with pET104.1-DEST destination vector, an expression vector with a N-terminal BioEase tag. The presence of an insert was confirmed by DNA sequencing.
CD99-ECD was expressed in Escherichia coli BL21 (DE3) cells. A saturated overnight culture of cells was diluted by 20-fold into fresh LB medium containing 100 μg/mL ampicillin. To induce the expression of CD99-ECD, cells were grown to OD600nm 0.5-0.7 at 37° C. and induced by the addition of isopropyl-β-D-thiogalactopyranoside to a final concentration of 1 mmol/L. The cultures were grown for an additional 3 h at 37° C. Cells were harvested by centrifugation at 8,000×g for 15 min, resuspended in 50 mmol/L sodium phosphate buffer, pH 7.4, containing 500 mmol/L NaCl, 10 mmol/L imidazole and 1 Complete EDTA-free protease inhibitor tablet/50 mL (Roche Diagnostics), and lysed by sonication. […] Protein fractions were finally eluted with a linear gradient of imidazole (10 to 1000 mmol/L) in the same buffer. The purity of the protein was assessed by SDS-PAGE followed by Coomassie staining. The eluted fractions were stored at −80° C. for further use. […]
For orientation: SPR reads the build-up and loss of mass on a sensor chip optically.

The test system of assay [2] is U-2 OS cells. The assay can be described thus: Cell cycle analysis by flow cytometry, OS cells. The assay is classed as cell-based, human. Particulars: 48 h, U-2 OS compared with ES cells. As for the experimental part: For the evaluation of cell cycle, cell cultures were incubated with 10 μmol/L bromodeoxyuridine (BrdU) (Sigma-Aldrich) for 1 h in a CO2 atmosphere at 37° C. Harvested cells were fixed in ice-cold 70% ethanol for 30 min. After DNA denaturation with 2 N HCl for 30 min at room temperature, cells were washed with 0.1 M Na2B4O7, pH 8.5 and processed for indirect immunofluorescence staining, using α-BrdU (BD Biosciences (San Jose, Calif.)) diluted 1:4 as a primary MAb and α-mouse FITC (1:100—Thermo Scientific (Waltham, Mass.)) as a secondary antibody. After treatment with 0.5 mg/ml RNase and staining with 20 μg/ml propidium iodide, cells were and analyzed by flow cytometry (FACSCalibur; Becton Dickinson (Franklin Lakes, N.J.)) for cell cycle evaluation and for assessing cell death by DNA content analysis.

The subject of assay [3] is SKES-1 ES cells. The assay can be described thus: Cell viability IC50, SKES-1. In kind it is cell-based. Particulars: Homo sapiens, SK-ES1. As for the experimental part: (§1) The plate was installed into the RTCA system, and the electrical impedance (represented as cell index) was measured every 10 min.
(§2) To investigate the relationship between the level of CD99 expression and drug sensitivity, the endogenous expression of CD99 was determined in a panel of 9 ES and 13 non-ES cell lines. The recombinant purified CD99-ECD protein was used to generate standard curves for immunoquantification of CD99 expression by immunoblotting (FIGS. 6B and 6C).

The subject of assay [4] is IOR/OS9 OS cells. The assay can be described thus: Cell viability IC50, IOR/OS9. The following applies: Homo sapiens. The assay is classed as cell-based. As to the method:
as §1, §2

In assay [5] the test system is RD18 rhabdomyosarcoma cells. The assay can be described thus: Cell viability IC50, RD18. In kind it is cell-based. The following applies: Homo sapiens, RD18 (RM). As for the experimental part:
as §1, §2

Assay [6] deals with IOR/OS14 OS cells. The assay can be described thus: Cell viability IC50, IOR/OS14. The assay is classed as cell-based. The following applies: Homo sapiens. As for the experimental part:
as §1, §2

Assay [7] has as its system TC-71, 6647 and RDES ES cells. The assay can be described thus: Soft agar colony formation assay, ES cells. In kind it is cell-based, human. Particulars: dose-dependent. As to the method:
Anchorage-independent growth was determined in 0.33% agarose (Sea-Plaque Agarose, Lonza) with a 0.5% agarose underlay. […] Colonies were counted after 7-12 days.

Assay [8] has as its system non-ES cell lines. As to the kind of experiment: Cell viability IC50 panel, non-ES cell lines. The assay is classed as cell-based. The following applies: 48 h; highest concentration tested (10 or 30 μmol/L) used for resistant lines; unit not printed with values. As for the experimental part: as §1
Therefore, two leukemia cell lines, MOLT-4 and Jurkat, were included as positive controls in this experiment.

For assay [9], the system named is SK-N-MC ES cells. The assay can be described thus: Cell viability IC50, SK-N-MC. The assay is classed as cell-based. The following applies: Homo sapiens. As to the method: as §1, §2
The subject of assay [10] is IOR/OS20 OS cells. The assay can be described thus: Cell viability IC50, IOR/OS20. The assay is classed as cell-based. Particulars: Homo sapiens. As to the method:
as §1, §2

Assay [11] concerns MG63.3 OS cells transfected with DCK siRNA. As to the kind of experiment: Response to clofarabine after DCK siRNA, OS cells. In kind it is cell-based, human. Particulars: MG63.3, DCK siRNA.
From the text: The expression of DCK and CD99 was suppressed transiently by using a validated small interfering RNA (siRNA) duplexes targeting coding region (Invitrogen (Carlsbad, Calif.); #s186 and #s8768, respectively). Silencer™ Select Negative Control No. 2 siRNA (Invitrogen) was used as the control. Cells were transfected with DCK or CD99 or control siRNA oligonucleotides using X-tremeGene siRNA transfection reagent (Roche Diagnostics (Basel, Switzerland)) according to the manufacturer's protocol. The cells were analyzed for DCK and CD99 knockdown after 45 or 72 h by immunoblotting.
Assay [12] relates to A4573 ES cells. The assay can be described thus: Cell viability IC50 (WST-1), A4573. The assay is classed as cell-based, human. Particulars: Homo sapiens, WST-1, 48 h (FIG. 10B). For orientation: Tetrazolium assays rely on reduction of a dye to a coloured formazan, in cell work by metabolically active cells.

The structures appear in SMILES notation. A value given as a limit tells only on which side of the number the result lay.

The values below come from US11202792B2, “CD99 inhibitors and their uses” (GEORGETOWN UNIVERSITY, priority 2016, dated 2021).

For orientation: Kd means the equilibrium constant for the complex coming apart. The IC50 is the midpoint of a concentration-inhibition curve.

Regarding `Nc1nc(Cl)nc2c1ncn2[C@H]1C[C@H](O)[C@@H](CO)O1` [cladribine], the Kd in [1] stood at 3.8 ± 2.4 µM. Moreover, in assay [2], the cell cycle effect entry is “more pronounced”. For the same compound, the IC50 is 0.43 µM in [3]; > 30 µM in assay [4]; 3.67 µM in assay [5]; > 30 µM in assay [6]; ≥ 20.1 µM in assay [8]; 0.68 µM in [9]. Besides, the IC50 in assay [10] was > 30 µM. Also, in assay [7], the “colony formation (anchorage-independent growth)” value is recorded as “significantly inhibited”.

As for `Nc1nc(Cl)nc2c1ncn2[C@@H]1O[C@H](CO)[C@@H](O)[C@@H]1F` [clofarabine], the Kd in assay [1] is 4.6 ± 3.2 µM. Also, in assay [11], the “response after inhibiting DCK protein expression” value is reported as “complete resistance”. For the same compound, the IC50 in assay [12] was 0.31 µM; in assay [3], 0.3 µM; in assay [4] it was > 10 µM; in assay [5], 0.97 µM; in [6] it was > 10 µM; in [8], ≥ 13.7 µM. The values for the IC50 in [9] and in assay [10] were 0.17 µM and > 10 µM, respectively. The “colony formation (anchorage-independent growth)” value in assay [7] is reported as “significantly inhibited”.
